Source: PMC11331138, “Leveraging coevolutionary insights and AI-based structural modeling to unravel receptor–peptide ligand-binding mechanisms” (Proceedings of the National Academy of Sciences of the …, 2024)

How the values were obtained:
[1] = test system: B. rapa MIK2; assay: ROS production, B. rapa MIK2 expressed in N. benthamiana; format: cell-based, Brassica rapa; settings: 1 μM SCOOP
Method: (§1) removed and ROS production was measured upon addition of a 100-μL assay solution which contained 10 μg/mL
(§2) horseradish peroxidase (P6782, Merck), 10 mM luminol and the treatment (1 μM SCOOP, 0.1 μM flg22 or H2O).
(§3) Luminescence was quantified with a HIGH-RESOLUTION PHOTON COUNTING SYSTEM (HRPCS218, Photek). Four
(§4) technical replicates per biological replicate (specified in Fig. S2) were quantified for each treatment, significant
(§5) differences were determined by performing a two-group Mann-Whitney U Test between each SCOOP treatment
(§6) and the mock treatment. R and the R-packages dplyr (v1.1.2), ggpubr (v.0.6.0), and ggplot2 (v3.4.2) were used to
(§7) analyze and plot the data. The resulting figure was edited in Corel-DRAW Home & Student x7.
(§8) Functional validation MIK2 homologues
(§9) All constructs were created using a hierarchical modular cloning approach facilitated by the MoClo toolkit and the
(§10) MoClo Plant Parts kit (25, 26). For recombinant expression, we used the previously published Arabidopsis MIK2
(§11) sequence (L0 level backbone, CZLp4829) (27), and MIK2 homologues were synthesized with domesticated BsaI […]
(§12) while using diverse Arabidopsis SCOOPs (AA sequences, Dataset S1) and fl g22. Biological replicates were quantified […]
(§13) H2O and rested for a minimum of 30 min in the dark. Two readings were taken in a TECAN SPARK plate reader every […]

[2] = test system: Arabidopsis Col-0; settings: selection criterion; ref [17]; cited from earlier work
Text: To test the conservation of plant responses to SCOOPs, we measured the production of ROS—a hallmark of LRR-RK activation—triggered by SCOOPs. […] The SCOOP SxS motif is unique across known plant-secreted signaling peptides in contrast to the N-terminal asparag ... || The S5 and S7 binding pockets were functionally validated by testing MIK2 variants using three experimental approaches; A) SCOOP12-binding to MIK2 ectodomain in vitro, B) SCOOP12-induced complex formation with its coreceptor BAK1 in vivo, and C) ROS production upon SCOOP treatments as a marker for receptor complex activation (Fig. 4 and SI Appendix, Fig. S6).

[3] = test system: D. strictus MIK2; assay: ROS production, D. strictus MIK2 expressed in N. benthamiana; format: cell-based, Diptychocarpus strictus; settings: 1 μM SCOOP
Method: as §1, §2, §3, §4, §5, §6, §7, §8, §9, §10, §11, §12, §13

[4] = test system: R. islandica MIK2; assay: ROS production, R. islandica MIK2 expressed in N. benthamiana; format: cell-based, Rorippa islandica; settings: 1 μM SCOOP
Method: as §1, §2, §3, §4, §5, §6, §7, §8, §9, §10, §11, §12, §13

[5] = target: MIK2 ectodomain S292A (S7 binding pocket variant) (Arabidopsis thaliana, UniProt Q8VZG8 44-709, S292A); assay: ITC
[6] = target: T1, MIK2 (MALE DISCOVERER 1-INTERACTING RECEPTOR-LIKE KINASE 2) ectodomain, wild type (Arabidopsis thaliana, UniProt Q8VZG8 44-709); assay: ITC
T1 chain: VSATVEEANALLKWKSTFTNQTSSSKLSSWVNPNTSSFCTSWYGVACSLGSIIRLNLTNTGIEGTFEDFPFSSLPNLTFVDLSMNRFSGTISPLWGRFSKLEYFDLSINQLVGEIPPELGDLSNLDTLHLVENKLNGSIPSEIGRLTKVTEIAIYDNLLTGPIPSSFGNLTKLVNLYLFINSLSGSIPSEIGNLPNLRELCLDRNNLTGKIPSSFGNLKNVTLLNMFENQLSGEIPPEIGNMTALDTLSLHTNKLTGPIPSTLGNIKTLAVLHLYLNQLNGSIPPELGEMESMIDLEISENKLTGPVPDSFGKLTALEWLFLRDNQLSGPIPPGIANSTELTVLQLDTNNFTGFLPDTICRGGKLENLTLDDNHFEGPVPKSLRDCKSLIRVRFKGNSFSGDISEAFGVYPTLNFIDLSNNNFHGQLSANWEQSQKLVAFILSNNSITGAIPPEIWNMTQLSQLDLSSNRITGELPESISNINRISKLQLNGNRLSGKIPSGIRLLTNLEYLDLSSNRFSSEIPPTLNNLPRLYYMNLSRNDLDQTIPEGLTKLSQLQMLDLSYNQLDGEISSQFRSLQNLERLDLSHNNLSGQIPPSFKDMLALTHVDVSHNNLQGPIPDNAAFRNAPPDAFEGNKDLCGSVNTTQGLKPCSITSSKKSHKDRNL

Chain of MIK2 ectodomain S292A (S7 binding pocket variant) (Q8VZG8 44-709 S292A): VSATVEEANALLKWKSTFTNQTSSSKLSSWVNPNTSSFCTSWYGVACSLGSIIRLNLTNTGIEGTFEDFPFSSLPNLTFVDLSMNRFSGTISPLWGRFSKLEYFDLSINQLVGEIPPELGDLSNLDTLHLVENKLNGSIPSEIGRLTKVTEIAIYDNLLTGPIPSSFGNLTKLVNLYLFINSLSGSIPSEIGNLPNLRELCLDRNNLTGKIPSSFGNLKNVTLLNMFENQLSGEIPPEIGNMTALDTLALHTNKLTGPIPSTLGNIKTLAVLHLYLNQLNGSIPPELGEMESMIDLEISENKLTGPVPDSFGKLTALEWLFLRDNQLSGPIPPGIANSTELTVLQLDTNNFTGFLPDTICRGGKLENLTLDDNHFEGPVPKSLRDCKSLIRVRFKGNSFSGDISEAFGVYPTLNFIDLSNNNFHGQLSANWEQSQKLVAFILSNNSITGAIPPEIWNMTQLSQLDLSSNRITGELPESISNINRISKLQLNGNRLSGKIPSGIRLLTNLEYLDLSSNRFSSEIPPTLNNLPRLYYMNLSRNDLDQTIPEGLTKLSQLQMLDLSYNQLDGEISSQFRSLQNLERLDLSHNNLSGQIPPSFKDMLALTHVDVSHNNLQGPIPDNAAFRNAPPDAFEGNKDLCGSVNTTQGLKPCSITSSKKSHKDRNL

Molecule: RVPRSKSPPDRQW [SCOOP24]
- SCOOP-induced ROS production (in words) [1]: did not lead to significant ROS production
- ROS production upon SCOOP treatment in Arabidopsis [2]: robust ROS production

Molecule: YVPPSKSRRGKGP [SCOOP16]
- ROS production upon SCOOP treatment in Arabidopsis [2]: robust ROS production
- SCOOP-induced ROS production (in words) [3]: conferred responsiveness
- SCOOP-induced ROS production (in words) [4]: conferred responsiveness

B1: SCOOP12 (SERINE RICH ENDOGENOUS PEPTIDE 12), synthetic peptide (peptide)
chain: PVRSSQSSQAGGR
- Kd [5]: 1240 nM
- Kd [6]: 2120 nM
